Measured values: EP0772773B1, “Src SH3 BINDING PEPTIDES AND METHODS OF ISOLATING AND USING SAME” (THE UNIVERSITY OF NORTH CAROLINA, priority 1994, dated 2006)
Entries after “also recorded” stand apart in the source; their conditions may differ.

Key:
NIH 3T3 fibroblasts = experiment: Fluorescence staining of fixed fibroblasts with biotinylated peptides and streptavidin-Cy3; format: cell-based; conditions: fixed NIH 3T3 fibroblasts; biotinylated peptide, streptavidin-Cy3; Figure 11
Experimental: Thus, NIH 3T3 fibroblasts were cultured in vitro on glass coverslips coated with fibronectin. After two days of growth at 37 °C, the cells were fixed for one hour at room temperature in the presence of 2% paraformaldehyde (pH 7.5). The coverslips were washed with PBS-0.1% Tween 20 several times to remove the fixative. Next, the coverslips were dipped into acetone (chilled at -20 °C) for approximately 20 seconds and allowed to air-dry. The coverslips were washed again with PBS-0.1% Tween 20, containing BSA (1 mg/mL), and incubated for 2 hours at room temperature with different biotinylated peptides in PBS-0.1% Tween 20. The coverslips were washed and then incubated with 1 mg/mL streptavidin-Cy3 (Jackson Immunoresearch Co., West Grove, PA) for 1 hour at room temperature. Finally, the coverslips were washed in PBS-0.1% Tween 20, mounted in a glycerol solution on a glass slide, and viewed with a Nikon Optiphot epifluorescence microscope and a 60x oil immersion lens.

SH3 domains [1] = experiment: Relative specificity of peptide binding across SH3 domains derived from different proteins; conditions: synthetic peptides, compared with 7-mer RPLPPLP, Figures 7 and 8
Description: (§1) The preparation of Src-GST fusion protein was first described by Smith and Johnson, in Gene (1988) 67:31, the disclosure of which is incorporated by reference herein. Briefly, pGEX-derived (Pharmacia, Piscataway, NJ) constructs expressing GST fusion proteins containing the SH3 domains of Src, Grb2, Crk, Abl, or PLCγ were obtained from Dr. Channing Der (University of North Carolina at Chapel Hill.), a construct expressing the SH3 domain of Yes was obtained from Dr. Marius Sudol (Rockefeller University). The use of the pGEX bacterial expression vector for the production of GST-SH3 fusion proteins is well-known to those in the art. See, e.g., Cicchetti, P. et al., in Science (1992) 257:803-806. Briefly, the coding region for a particular SH3 domain can be fused in-frame at the Bam HI site of pGEX-2T. Thus, fusion proteins were prepared as per the manufacturer's instructions, and quantified by Coomassie Blue staining of SDS-polyacrylamide gels. Microtiter wells were coated with 5-20 µg GST-SH3 fusion protein in 100 mM NaHCO3, pH 8.5, blocked with 100 mM NaHCO3 (pH 8.5) 1% BSA, and washed. All washes consisted of five applications of 1XPBS, 0.1% Tween 20, 0.1% BSA (Buffer A). Where appropriate, the amount of protein bound to each well was quantified with an anti-GST antibody-based ELISA (Pharmacia, Piscataway, NJ), and with a GST-binding phage, isolated during the course of this work.
(§2) Peptides were obtained from Research Genetics (Birmingham, AL), Chiron Mimotopes (Victoria, Australia), or synthesized by conventional techniques by Dr. J. Mark Carter of cytogen Corporation (Princeton, NJ). Peptide purity was assessed by HPLC and/or mass spectrometry. Biotinylated peptides were synthesized with either a KSGSG (SEQ ID NO:103) or a GSGS (SEQ ID NO:104) peptide linker (a spacer) between the biotin and the N-terminus of the peptide. Binding experiments were performed as above, excepting the use of 10 µM peptide instead of phage. Bound biotinylated peptide was detected with streptavidin conjugated to alkaline phosphatase (Sigma chemical Co., st. Louis, MO). After one hour incubation period at room temperature, the wells were washed, and a solution of 3 mM p-nitrophenyl-phosphate (US Biochemicals, Cleveland, OH) in 50 mM NaCO3 (pH 9.8), and 50 mM MgCl2 was added and color allowed to develop. Signals were read with an ELISA plate reader (Molecular Devices, Menlo Park, CA) at 405 nm wavelength. Binding experiments were performed in triplicate.

Src SH3-GST = experiment: Biotinylated synthetic peptide direct binding ELISA on immobilized GST-SH3 fusion; conditions: 10 µM biotinylated peptide; streptavidin-alkaline phosphatase ELISA, absorbance at 405 nm; Figures 7 and 8
Description: as §1
Bacterially expressed Src SH3 glutathione-s-transferase (Src-GST) fusion protein was purified from bacterial lysates using glutathione agarose 4B (Pharmacia), according to the manufacturer's instructions. Bound Src-GST fusion protein was eluted from the glutathione agarose with 10 mM glutathione in PBS. Microtiter wells were then coated with Src-GST fusion protein (1-10 µg/well, in 50 mM NaHCO3, pH 8.5) overnight at 4 °C. To block non-specific binding of phage, 100 µL 1% BSA in 100 mM NaHCO3, pH 8.5, was added to each well and allowed to incubate at room temperature for 1 hour. The wells were then washed five times with 200 µL PBS, 0.1% Tween 20, 0.1% BSA (Buffer A).
as §2

Yes SH3-GST = experiment: as above; conditions: 10 µM biotinylated peptide, absorbance at 405 nm, Figure 8
Description: as §1, §2

PLCγ1 SH2SH3-GST = experiment: as above; conditions: 10 µM biotinylated peptide, absorbance at 405 nm, Figure 8
Description: as §1, §2

Grb2-GST = experiment: as above; conditions: 10 µM biotinylated peptide, absorbance at 405 nm, Figure 8
Description: as §1, §2

SH3 domains [2] = experiment: Relative specificity of peptide binding across SH3 domains derived from different proteins; conditions: not tested
[3] = molecular target: Src and PI-3' Kinase SH3 domains; conditions: Yu et al. / Chen et al., biased library peptides; read-out: binding affinity; cited from earlier work

Substance	fluorescence staining / cellular localization (NIH 3T3 fibroblasts)	relative binding affinity / specificity for SH3 domains (SH3 domains [1])	binding to Src SH3-GST (Src SH3-GST)	further results
biotin-spacer-LAPPKPPLPEGEV [reference compound]	relatively "dark" features			
GPHRRLPPTPATR		specific to Src family SH3 domains	much more avidly than the 7-mer	relative binding affinity / specificity for SH3 domains (SH3 domains [1]; listed as GPHRRLPPPTPATR): avid binding affinity to SH3 domains relative to the 7-mer; binding to Yes SH3-GST (Yes SH3-GST): much more avidly than the 7-mer; binding to PLCγ SH3 domain (PLCγ1 SH2SH3-GST): little affinity; binding to Grb2 SH3 domain (Grb2-GST): little affinity
GTVEPVPPPVPPRRRPESA [reference compound]			less well than the library-derived peptides	
biotin-spacer-VLKRPLPIPPVTR	bright display of fluorescence activity			
biotin-spacer-RSTPRPLPPLPTTR	bright display of fluorescence activity			
RSTPRPLPMLPTTR		highly specific for SH3 domain of Src, Yes, and other Src-related proteins	much more avidly than the 7-mer; also recorded: strong specific binding affinity	binding to Yes SH3-GST (Yes SH3-GST): much more avidly than the 7-mer
KISPPTPKPKPPRPLPV [reference compound]			less well than the library-derived peptides	
biotin-spacer-GILAPPVPPRNTR	bright display of fluorescence activity			
GILAPPVPPRNTR	localize within cellular compartments thought to contain Src or Src-related proteins	binds generically to a broad range of SH3 domains; also recorded: avid binding affinity to SH3 domains relative to the 7-mer; also recorded: more generic SH3 domain-binding characteristics	much more avidly than the 7-mer	binding to Yes SH3-GST (Yes SH3-GST): much more avidly than the 7-mer
RSTPAPPVPPRTTR				surmised binding to a variety of SH3 domains (SH3 domains [2]): strong but generic binding
ANPSPATRPLPTR		binding affinities comparable to the core consensus sequence; also recorded: avid binding affinity to SH3 domains relative to the 7-mer		relative binding affinity / specificity for SH3 domains (SH3 domains [1]; listed as AHPSPATRPLPTR): Src family specificity similar to GPHRRLPPTPATR
RKLPPRPRR ["composite" peptide of the literature]				Kd [3]: 7.6 µM
RPLPPLP		less effective in binding to target SH3 domains	only weakly	
RSTPRPLPPLPTTR [representative consensus motif with R8C.YES3.5 flanking residues]	localize within cellular compartments thought to contain Src or Src-related proteins	highly specific for SH3 domain of Src, Yes, and other Src-related proteins	much more avidly than the 7-mer; also recorded: strong specific binding affinity	binding to Yes SH3-GST (Yes SH3-GST): much more avidly than the 7-mer
